Values belong to the molecule of their own block, whether it stands above or below them.
Columns and labels:
[1] = biological target: Transcriptional enhancer factor TEF-1 (Homo sapiens, UniProt P28347); test: Inhibition of N-terminal 6xHis-tagged human TEAD1 auto palmitoylation (209 to 426 residues) expressed in Escherichia coli BL21 (DE3) cells by ABPP assay
[2] = biological target: Transcriptional enhancer factor TEF-5 (Homo sapiens, UniProt Q99594); test: Inhibition of N-terminal 6xHis-tagged human TEAD3 auto palmitoylation (209 to 426 residues) expressed in Escherichia coli BL21 (DE3) cells by ABPP assay
[3] = Inhibition of YAP/TEAD in HEK293 cells by Split Gaussia Luciferase Assay; type: cell-based, HEK293T; settings: Homo sapiens, HEK-293T
[4] = tested on: NCI-H226; test: Antitumor activity against human NCI-H226 cells xenografted BALB/c mouse assessed as tumor growth inhibition at 2 mg/kg, po qd for 28 days relative to control; type: functional; settings: NCI-H226, 672 h, time 28 day, read-out: TGI
[5] = Inhibition of TEAD auto palmitoylation (unknown origin); design: species or system Homo sapiens
[6] = tested on: NCI-H226; test: Antiproliferative activity against human NCI-H226 cells assessed as cells growth inhibition incubated for 144 hrs by CCK-8 assay; type: functional, cell-based; settings: NCI-H226, 144 h
[7] = tested on: MSTO-211H; test: Antiproliferative activity against human MSTO-211H cells assessed as cell growth inhibition incubated for 144 hrs by CCK-8 assay; type: functional, cell-based
[8] = Antiproliferative activity against human Mero-14 cells assessed as cell growth inhibition incubated for 144 hrs by CCK-8 assay; type: functional, cell-based; settings: Mero-14, 144 h
[9] = tested on: NCI-H226; test: Antitumor activity against human NCI-H226 cells xenografted BALB/c mouse assessed as tumor growth inhibition at 10 mg/kg, po qd for 28 days relative to control; type: functional; settings: NCI-H226, 672 h, time 28 day, read-out: TGI

Transcriptional enhancer factor TEF-5, sequence (Q99594 whole entry, the tested form may be a part): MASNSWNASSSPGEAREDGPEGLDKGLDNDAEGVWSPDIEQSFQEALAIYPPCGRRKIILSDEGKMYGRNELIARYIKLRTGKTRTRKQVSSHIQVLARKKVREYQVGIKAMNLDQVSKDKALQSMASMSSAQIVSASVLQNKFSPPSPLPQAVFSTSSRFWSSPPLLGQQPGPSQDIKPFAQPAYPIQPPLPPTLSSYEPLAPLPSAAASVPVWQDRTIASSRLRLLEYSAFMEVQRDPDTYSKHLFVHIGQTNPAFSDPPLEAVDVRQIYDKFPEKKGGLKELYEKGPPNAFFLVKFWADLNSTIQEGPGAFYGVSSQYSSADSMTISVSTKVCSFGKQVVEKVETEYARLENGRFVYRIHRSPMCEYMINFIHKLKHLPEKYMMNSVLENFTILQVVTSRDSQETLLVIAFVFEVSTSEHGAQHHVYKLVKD
Transcriptional enhancer factor TEF-1, sequence (P28347 whole entry, the tested form may be a part): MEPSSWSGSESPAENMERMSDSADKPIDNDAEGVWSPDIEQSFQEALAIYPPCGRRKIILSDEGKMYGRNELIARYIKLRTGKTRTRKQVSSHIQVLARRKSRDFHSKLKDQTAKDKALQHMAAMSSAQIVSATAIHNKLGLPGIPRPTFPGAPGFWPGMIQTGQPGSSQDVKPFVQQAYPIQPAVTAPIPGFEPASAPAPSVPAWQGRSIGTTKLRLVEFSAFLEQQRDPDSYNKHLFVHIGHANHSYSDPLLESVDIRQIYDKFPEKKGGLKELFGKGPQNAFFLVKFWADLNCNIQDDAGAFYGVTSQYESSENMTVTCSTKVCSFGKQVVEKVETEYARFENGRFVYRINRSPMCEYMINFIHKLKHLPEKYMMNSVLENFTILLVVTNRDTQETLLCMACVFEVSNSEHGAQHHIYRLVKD

IC50 [1]: 580 nM
IC50 [2]: 610 nM
SMILES: C=CC(=O)N1CCC(CCOc2ccccc2)CC1

IC50 [3]: 800 nM
SMILES: C=CC(=O)N1CCC(C)(Nc2cccc(C(F)(F)F)c2)C1 (centres undefined)

EC50 [5]: 25 nM
SMILES: CNS(=O)(=O)c1ccc(NCc2ccc(C(F)(F)F)cc2)c(-c2cn(C)cn2)c1

IC50 [6]: < 100 nM
SMILES: C=CC(=O)Nc1ccc(C)c(Oc2ccc(Cl)cc2)c1
IC50 [7]: < 100 nM
IC50 [8]: < 100 nM

Continued, molecule first:

SMILES: C=C(F)C(=O)N1CC(n2nc(-c3ccc(C(F)(F)F)nc3)c3cccnc32)C1
inhibition in vivo at 2 mg/kg [4]: 67%

SMILES: C=C(F)C(=O)N1CC(n2nc(-c3ccc(C(F)(F)F)cc3)c3cccnc32)C1
inhibition in vivo at 10 mg/kg [9]: 101%

From ChEMBL document CHEMBL5360521, “A chemical perspective on the modulation of TEAD transcriptional activities: Recent progress, challenges, and opportunities” (Eur J Med Chem, 2022)
